Test results taken from patent US20190054103A1, “METHOD OF TREATMENT OF TP53 WILD-TYPE TUMORS WITH 2',2'-DIFLUORO-5-AZA-2'-DEOXYCYTIDINE OR PRODRUGS THEREOF” (priority 2016, published 2019).
Read-outs that look alike come from different tables or passages of the source.

How the values were obtained:
[1] = Pharmacokinetics after SC administration of NUC041 in phospholipid gel depot to mice; settings: analyte in plasma following SC administration of NUC041 (100 mg/kg) to mice
[2] = tested on: HL-60 (leukemia, TP null); settings: HL-60 nude mice
[3] = tested on: TP53 WT colon cancer cell line Ls174T; test: CellTiter-Glo growth inhibition, Ls174T; assay type: cell-based; settings: Homo sapiens, 72-hour exposure, FIG. 1
Procedure: Two examples of additional comparisons are provided below for colon cancer cell lines (TP53 WT colon cancer cell line Ls174T and TP53 WT colon cancer cell line LoVo).
In these assays, two 96 well plates of each cell line were seeded with 5,000 cells per well in a total volume of […] per well and left incubating overnight. The following day, the cells were exposed to different concentrations of NUC013. At the end of a 72-hour exposure period, the plates were removed for CellTiter-Glo® assay. Luminescence was recorded on a Synergy 4.0.

[4] = NUC013 administered IV to mice
HeLa cells = test: Nucleotide concentrations in HeLa cell extracts by HPLC (RNR inhibition); assay type: cell-based; settings: 50 μM, 16 h incubation
Description: The more common approach is to synthesize a nucleoside diphosphate and then determine whether it inhibits RNR or p53R2. […] Nucleic Acids Research. […] The other approach is to expose cells in tissue culture to the drug and then attempt to determine whether deoxynucleotide synthesis is inhibited when compared to control cells. Measurement of deoxynucleotides may be done by radioimmunoassay or by HPLC. The disadvantage of a radioimmunoassay is that it can only measure a single deoxynucleotide triphosphate (dNTP) at a time and typically requires a tritiated nucleotide, but it is the preferred method for measuring dCTP [Piall E M, Aherne G W, Marks V. The quantitative determination of 2′-deoxycytidine-5′ triphosphate in cell extracts by radioimmunoassay. Anal Biochem. 1986; 154(1):276-281 incorporated herein by reference in its entirety]. On the other hand, HPLC can measure multiple nucleotides without requiring radiolabeling, but has been noted to quantitate poorly dC nucleotides, possibly as an artifact of an influx of dCTP from the medium [Bianchi V, Pontis E, Reichard P. Changes of deoxyribonucleoside triphosphate pools induced by hydroxyurea and their relation to DNA synthesis. J Biol Chem. 1986; 261(34): 16037-16042 incorporated herein by reference in its entirety]. This approach was used to determine RNR inhibition by NUC013.
Briefly, HeLa cells ([…]) were grown in the presence or absence of drug, in this case gemcitabine or NUC013. At the end of a 16 h incubation, the medium was aspirated, cells monolayers washed twice with PBS, and used for nucleotide extraction. The nucleotides were extracted from cell monolayers by the addition of ice-cold 80% acetonitrile (ACN) for 1 h. The extracts were centrifuged to remove cellular debris and loaded on a SAX column (100 mg, Supelco) pre-conditioned with methanol, water and ACN. Once the sample was completely effused, the cartridge was washed with 3 ml 80% ACN and 3 ml water and eluted with 1M KCl. The eluent was filtered through a 0.45 μm filter membrane (Roth) and analyzed by HPLC. Peak identification of the different nucleoside mono-, di-, and triphosphates, was made from their characteristic UV absorption spectra and retention times compared with those of a mixture of standards run immediately before cell extracts. The area of individual peaks was measured using ChemStation software (Agilent).

in vivo = settings: nude, mouse, iv
CFPAC-1 = test: Growth inhibition of pancreatic cancer cell line CFPAC-1; assay type: cell-based; settings: Homo sapiens

SMILES: Nc1ncn([C@@H]2O[C@H](CO)[C@@H](O)C2(F)F)c(=O)n1 [NUC013, 4-amino-1-((2R,4R,5R)-3,3-difluoro-4-hydroxy-5-(hydroxymethyl)tetrahydrofuran-2-yl)-1,3,5-triazin-2(1H)-one]
- AUClast (area under the plasma concentration versus time curve from 0 to last quantifiable sampling time) [1]: 1.939 µg·h/mL
- animals removed from the study for death or moribund ([2]; 5.8 mg/kg): no animals removed from the study for death or moribund
- tumor weights vs saline control ([2]; 5.8 mg/kg): not significantly different
- hazard ratio (HR) vs saline control (death, ulcerated tumor or tumor >4 g) ([2]; 5.8 mg/kg (equimolar to decitabine 5 mg/kg)): 0.46
- hazard ratio (HR) vs saline control (death, ulcerated tumor or tumor >4 g) ([2]; 20 mg/kg): 0.26
- tumor volume vs saline control ([2]; 20 mg/kg, study days 18 through 28, FIG. 3A): significant decreases
- GI50 [3]: 1.3 µM
- half-life [4]: 20 min
- ADP (HeLa cells): 13,845
- ATP (HeLa cells): 21,335
- CTP (HeLa cells): 1,279
- GTP (HeLa cells): 2,006
- UTP (HeLa cells): 4,070
- dATP, peak area, AU (HeLa cells): 10.2 AU
- dGDP, peak area, AU (HeLa cells): 5.6 AU
- dTDP, peak area, AU (HeLa cells): 18.65 AU
- dUTP, peak area, AU (HeLa cells): 8.8 AU
- MTD at 3 weeks (in vivo): > 120 mg/kg
- GI50 (CFPAC-1): 53.8 µM
